{"source": "patent US11528929B2", "about": "“Composition for treatment of overactive bladder” (priority 2019, dated 2022)", "origin": "cited, not measured here", "settings": "pH at 50% bound and 50% in free form"}
{"molecule": "O=C(O)CC(O)C(=O)O", "note": "(stereo not shown) [malic acid]", "values": [{"measurement": "isoelectric pH (dissociation point)", "value": 3.41}]}
